Key:
Staphylococcus aureus [1] = test: Antibacterial activity against methicillin-resistant Staphylococcus aureus N315 assessed as reduction in microbial growth incubated for 22 to 24 hrs by CLSI based broth microdilution method; format: functional; conditions: time 22-24 hrs
Staphylococcus aureus [2] = test: Antibacterial activity against Staphylococcus aureus ATCC29213 assessed as reduction in microbial growth incubated for 22 to 24 hrs by CLSI based broth microdilution method; format: functional; conditions: time 22-24 hrs
Staphylococcus aureus [3] = test: Antibacterial activity against methicillin-resistant Staphylococcus aureus NCTC10442 assessed as reduction in microbial growth incubated for 22 to 24 hrs by CLSI based broth microdilution method; format: functional; conditions: time 22-24 hrs
Escherichia coli = test: Antibacterial activity against Escherichia coli ATCC25922 assessed as reduction in microbial growth incubated for 22 to 24 hrs by CLSI based broth microdilution method; format: functional; conditions: time 22-24 hrs
[4] = Hemolytic activity against rabbit RBC incubated for 1 hr by multimode plate reader; format: toxicity, cell-based, Oryctolagus cuniculus, Erythrocyte; conditions: rabbit red blood cells (erythrocytes)
Acinetobacter baumannii [5] = test: Antibacterial activity against Acinetobacter baumannii ATCC17978 assessed as reduction in microbial growth incubated for 22 to 24 hrs by CLSI based broth microdilution method; format: functional; conditions: time 22-24 hrs
[6] = test system: Staphylococcus epidermidis; test: Antibacterial activity against Staphylococcus epidermidis ATCC12228 assessed as reduction in microbial growth incubated for 22 to 24 hrs by CLSI based broth microdilution method; format: functional; conditions: time 22-24 hrs
[7] = test system: Staphylococcus epidermidis; test: Antibacterial activity against Staphylococcus epidermidis CMCC26069 assessed as reduction in microbial growth incubated for 22 to 24 hrs by CLSI based broth microdilution method; format: functional; conditions: time 22-24 hrs
Acinetobacter baumannii [8] = test: Antibacterial activity against Acinetobacter baumannii R28889 assessed as reduction in microbial growth incubated for 22 to 24 hrs by CLSI based broth microdilution method; format: functional; conditions: time 22-24 hrs
Klebsiella pneumoniae = test: Antibacterial activity against Klebsiella pneumoniae ATCC10031 assessed as reduction in microbial growth incubated for 22 to 24 hrs by CLSI based broth microdilution method; format: functional; conditions: time 22-24 hrs
Staphylococcus aureus [9] = test: Antibacterial activity against Staphylococcus aureus ATCC25923 assessed as reduction in microbial growth incubated for 22 to 24 hrs by CLSI based broth microdilution method; format: functional; conditions: time 22-24 hrs
Staphylococcus aureus [10] = test: Drug resistance, ratio of MIC for Staphylococcus aureus ATCC29213 after 13 passages to MIC for Staphylococcus aureus ATCC29213 after initial exposure; format: functional
Staphylococcus aureus [11] = test: Antibacterial activity against Staphylococcus aureus ATCC29213 infected in C57BL6 mouse corneal infection model assessed as log reduction in CFU at 5 % administered topically on corneas for four times in 3 days by MHA plate counting method; format: functional; conditions: time 3 day

Row | SMILES | MIC (Staphylococcus aureus [1]) | MIC (Staphylococcus aureus [2]) | MIC (Staphylococcus aureus [3]) | MIC (Escherichia coli) | HC50 at 1 h [4] | MIC (Acinetobacter baumannii [5]) | MIC [6] | MIC [7] | MIC (Acinetobacter baumannii [8]) | MIC (Klebsiella pneumoniae) | MIC (Staphylococcus aureus [9]) | Ratio (Staphylococcus aureus [10]) | log(activity) (Staphylococcus aureus [11])
1 | COC(=O)[C@H](CCCNC(=N)N)NC(=O)COc1ccc(S(=O)(=O)c2ccc(OC/C=C(/C)CCC=C(C)C)cc2)cc1 | 50 µg/mL | > 50 µg/mL | 50 µg/mL | > 50 µg/mL | > 200 µg/mL |  |  |  |  |  |  |  | 
2 | CC(C)Oc1ccc(S(=O)(=O)c2ccc(OCCCCNC(=N)N)cc2)cc1 | 6.25 µg/mL | 12.5 µg/mL | 6.25 µg/mL | 50 µg/mL | > 200 µg/mL |  |  |  |  |  |  |  | 
3 | COC(=O)[C@H](CCCNC(=N)N)NC(=O)[C@H](CCCNC(=N)N)NC(=O)[C@H](CCCNC(=N)N)NC(=O)COc1ccc(S(=O)(=O)c2ccc(OCC=C(C)C)cc2)cc1 | 6.25 µg/mL | 12.5 µg/mL | 6.25 µg/mL | > 50 µg/mL | > 200 µg/mL |  |  |  |  |  |  |  | 
4 | CC(C)=CCC/C(C)=C\COc1ccc(S(=O)(=O)c2ccc(OCCCCNC(=N)N)cc2)cc1 | 0.78 µg/mL | 1.56 µg/mL | 0.78 µg/mL | > 50 µg/mL | 144 µg/mL |  |  |  |  |  |  |  | 
5 | COC(=O)[C@H](CCCNC(=N)N)NC(=O)COc1ccc(S(=O)(=O)c2ccc(OC(C)C)cc2)cc1 | > 50 µg/mL | > 50 µg/mL | > 50 µg/mL | > 50 µg/mL | > 200 µg/mL |  |  |  |  |  |  |  | 
6 | C=CCOc1ccc(S(=O)(=O)c2ccc(OCC(=O)OCC)cc2)cc1 | > 50 µg/mL | > 50 µg/mL | > 50 µg/mL | > 50 µg/mL | > 200 µg/mL |  |  |  |  |  |  |  | 
7 | CC(C)=CCOc1ccc(S(=O)(=O)c2ccc(OCCCCN)cc2)cc1 | 6.25 µg/mL | 25 µg/mL | 6.25 µg/mL | > 50 µg/mL | > 200 µg/mL |  |  |  |  |  |  |  | 
8 | C=CCOc1ccc(S(=O)(=O)c2ccc(OCCCCNC(=N)N)cc2)cc1 | 6.25 µg/mL | 6.25 µg/mL | 6.25 µg/mL | 50 µg/mL | > 200 µg/mL |  |  |  |  |  |  |  | 
9 | C=CCOc1ccc(S(=O)(=O)c2ccc(OCC(=O)N[C@@H](CCCNC(=N)N)C(=O)OC)cc2)cc1 | > 50 µg/mL | > 50 µg/mL | > 50 µg/mL | > 50 µg/mL | > 200 µg/mL |  |  |  |  |  |  |  | 
10 | COC(=O)[C@H](CCCNC(=N)N)NC(=O)[C@H](CCCNC(=N)N)NC(=O)[C@H](CCCNC(=N)N)NC(=O)COc1ccc(S(=O)(=O)c2ccc(OC(C)C)cc2)cc1 | > 50 µg/mL | > 50 µg/mL | > 50 µg/mL | > 50 µg/mL | > 200 µg/mL |  |  |  |  |  |  |  | 
11 | CCOC(=O)COc1ccc(S(=O)(=O)c2ccc(OC(C)C)cc2)cc1 | > 50 µg/mL | > 50 µg/mL | > 50 µg/mL | > 50 µg/mL | > 200 µg/mL |  |  |  |  |  |  |  | 
12 | CCOC(=O)COc1ccc(S(=O)(=O)c2ccc(OC/C=C(/C)CCC=C(C)C)cc2)cc1 | > 50 µg/mL | > 50 µg/mL | > 50 µg/mL | > 50 µg/mL | > 200 µg/mL |  |  |  |  |  |  |  | 
13 | C=CCCCCCOc1ccc(S(=O)(=O)c2ccc(OCCCCNC(=N)N)cc2)cc1 | 0.78 µg/mL | 1.56 µg/mL | 0.78 µg/mL | > 50 µg/mL | > 200 µg/mL |  |  |  |  |  |  |  | 
14 | CC(C)=CCOc1ccc(S(=O)(=O)c2ccc(OCCCCNC(=N)N)cc2)cc1 | 1.56 µg/mL | 3.12 µg/mL | 3.12 µg/mL | 12.5 µg/mL | > 200 µg/mL | 6.25 µg/mL | 1.56 µg/mL | 1.56 µg/mL | 6.25 µg/mL | 6.25 µg/mL | 3.12 µg/mL |  | 
15 | COC(=O)[C@H](CCCNC(=N)N)NC(=O)[C@H](CCCNC(=N)N)NC(=O)[C@H](CCCNC(=N)N)NC(=O)COc1ccc(S(=O)(=O)c2ccc(OC/C=C(/C)CCC=C(C)C)cc2)cc1 | 0.78 µg/mL | 0.78 µg/mL | 0.78 µg/mL | 6.25 µg/mL | 165 µg/mL |  |  |  |  |  |  |  | 
16 | CCOC(=O)COc1ccc(S(=O)(=O)c2ccc(OCC=C(C)C)cc2)cc1 | > 50 µg/mL | > 50 µg/mL | > 50 µg/mL | > 50 µg/mL | > 200 µg/mL |  |  |  |  |  |  |  | 
17 | CCn1cc(C(=O)O)c(=O)c2cc(F)c(N3CCNCC3)cc21 [NORFLOXACIN] |  |  |  |  |  |  |  |  |  |  |  | 4 | 
18 | COC(=O)[C@H](CCCNC(=N)N)NC(=O)COc1ccc(S(=O)(=O)c2ccc(OCC=C(C)C)cc2)cc1 | 12.5 µg/mL | 25 µg/mL | 12.5 µg/mL | > 50 µg/mL | 200 µg/mL |  |  |  |  |  |  |  | 
19 | CC(C)=CCOc1ccc(S(=O)(=O)c2ccc(OCCOCCNC(=N)N)cc2)cc1 | 3.12 µg/mL | 6.25 µg/mL | 3.12 µg/mL | 50 µg/mL | > 200 µg/mL |  |  |  |  |  |  |  | 
20 | O=S(=O)(c1ccc(O)cc1)c1ccc(O)cc1 | > 50 µg/mL | > 50 µg/mL | > 50 µg/mL | > 100 µg/mL | > 200 µg/mL |  |  |  |  |  |  |  | 
21 | COC(=O)[C@H](CCCNC(=N)N)NC(=O)[C@H](CCCNC(=N)N)NC(=O)COc1ccc(S(=O)(=O)c2ccc(OCC=C(C)C)cc2)cc1 | 6.25 µg/mL | 25 µg/mL | 6.25 µg/mL | > 50 µg/mL | > 200 µg/mL |  |  |  |  |  |  |  | 
22 | CC[C@H](C)[C@H](NC(=O)CN)C(=O)NCC(=O)N[C@@H](C)C(=O)N[C@H](C(=O)N[C@@H](CC(C)C)C(=O)N[C@@H](CCCCN)C(=O)N[C@H](C(=O)N[C@@H](CC(C)C)C(=O)N[C@H](C(=O)N[C@H](C(=O)NCC(=O)N[C@@H](CC(C)C)C(=O)N1CCC[C@H]1C(=O)N[C@@H](C)C(=O)N[C@@H](CC(C)C)C(=O)N[C@H](C(=O)N[C@@H](CO)C(=O)N[C@@H](Cc1c[nH]c2ccccc12)C(=O)N[C@H](C(=O)N[C@@H](CCCCN)C(=O)N[C@@H](CCCNC(=N)N)C(=O)N[C@@H](CCCCN)C(=O)N[C@@H](CCCNC(=N)N)C(=O)N[C@@H](CCC(N)=O)C(=O)N[C@@H](CCC(N)=O)C(N)=O)[C@@H](C)CC)[C@@H](C)CC)[C@@H](C)O)[C@@H](C)O)C(C)C)C(C)C [MELITTIN] |  |  |  |  |  | 3.12 µg/mL |  |  | 3.12 µg/mL | 6.25 µg/mL |  |  | 
23 | CC(C)=CCOc1ccc(S(=O)(=O)c2ccc(OCCCCN(C)C)cc2)cc1 | 12.5 µg/mL | 25 µg/mL | 12.5 µg/mL | 50 µg/mL | 67.8 µg/mL |  |  |  |  |  |  |  | 
24 | CN[C@H](CC(C)C)C(=O)N[C@H]1C(=O)N[C@@H](CC(N)=O)C(=O)N[C@H]2C(=O)N[C@H]3C(=O)N[C@H](C(=O)N[C@H](C(=O)O)c4cc(O)cc(O)c4-c4cc3ccc4O)[C@H](O)c3ccc(c(Cl)c3)Oc3cc2cc(c3O[C@@H]2O[C@H](CO)[C@@H](O)[C@H](O)[C@H]2O[C@H]2C[C@](C)(N)[C@H](O)[C@H](C)O2)Oc2ccc(cc2Cl)[C@H]1O [VANCOMYCIN] |  | 0.78 µg/mL |  |  |  |  |  |  |  |  | 0.78 µg/mL |  | 4.8
25 | CC(C)=CCOc1ccc(S(=O)(=O)c2ccc(OCCCNC(=N)N)cc2)cc1 | 3.12 µg/mL | 6.25 µg/mL | 3.12 µg/mL | 50 µg/mL | > 200 µg/mL |  |  |  |  |  |  |  | 
26 | CCN(CC)CCCCOc1ccc(S(=O)(=O)c2ccc(OCC=C(C)C)cc2)cc1 | 25 µg/mL | 50 µg/mL | 25 µg/mL | > 50 µg/mL | 69.4 µg/mL |  |  |  |  |  |  |  | 
27 | CCNCCCCOc1ccc(S(=O)(=O)c2ccc(OCC=C(C)C)cc2)cc1 | 25 µg/mL | 25 µg/mL | 25 µg/mL | > 50 µg/mL | 70.8 µg/mL |  |  |  |  |  |  |  | 

Reference: ChEMBL document CHEMBL5584236, “Development of novel bisphenol derivatives with a membrane-targeting mechanism as potent gram-positive antibacterial agents” (Eur J Med Chem, 2024)
